# Values quoted from earlier work in patent US7683052B2, “Crystalline polymorph of bazedoxifene acetate” (Wyeth, priority 2004, dated 2010).
# How the values were obtained:
# uterine response = settings: preclinical models of uterine stimulation
# ovariectomized rat = ovariectomized rat model of osteopenia
# [1] = tested on: MCF-7 cell line (human breast cancer cell line); settings: MCF-7 human breast cancer cell line
compound,measurement,setting,value
"Cc1c(-c2ccc(O)cc2)n(Cc2ccc(OCCN3CCCCCC3)cc2)c2ccc(O)cc12 [bazedoxifene acetate, 1-[4-(2-azepan-1-yl-ethoxy)-benzyl]-2-(4-hydroxy-phenyl)-3-methyl-1H-indol-5-ol acetic acid]",Stimulation of uterine response,uterine response,little or no stimulation of uterine response
same,Effect on bone loss and cholesterol,ovariectomized rat,estrogen agonist-like effect in preventing bone loss and reducing cholesterol
same,Estrogen agonist/antagonist behaviour in MCF-7 cells,[1],behaves as an estrogen antagonist
